In ChEMBL document CHEMBL4011597, “Synthesis, screening and docking of fused pyrano[3,2-d]pyrimidine derivatives as xanthine oxidase inhibitor” (Eur J Med Chem, 2017):

Target: Xanthine dehydrogenase/oxidase (Bos taurus, UniProt P80457)
Assay: Inhibition of bovine xanthine oxidase assessed as reduction in uric acid formation at 100 uM using xanthine as substrate pretreated for 5 mins followed by substrate addition measured by UV-vis spectrophotometric method relative to control
Conditions: cattle

Sequence of Xanthine dehydrogenase/oxidase (P80457 whole entry): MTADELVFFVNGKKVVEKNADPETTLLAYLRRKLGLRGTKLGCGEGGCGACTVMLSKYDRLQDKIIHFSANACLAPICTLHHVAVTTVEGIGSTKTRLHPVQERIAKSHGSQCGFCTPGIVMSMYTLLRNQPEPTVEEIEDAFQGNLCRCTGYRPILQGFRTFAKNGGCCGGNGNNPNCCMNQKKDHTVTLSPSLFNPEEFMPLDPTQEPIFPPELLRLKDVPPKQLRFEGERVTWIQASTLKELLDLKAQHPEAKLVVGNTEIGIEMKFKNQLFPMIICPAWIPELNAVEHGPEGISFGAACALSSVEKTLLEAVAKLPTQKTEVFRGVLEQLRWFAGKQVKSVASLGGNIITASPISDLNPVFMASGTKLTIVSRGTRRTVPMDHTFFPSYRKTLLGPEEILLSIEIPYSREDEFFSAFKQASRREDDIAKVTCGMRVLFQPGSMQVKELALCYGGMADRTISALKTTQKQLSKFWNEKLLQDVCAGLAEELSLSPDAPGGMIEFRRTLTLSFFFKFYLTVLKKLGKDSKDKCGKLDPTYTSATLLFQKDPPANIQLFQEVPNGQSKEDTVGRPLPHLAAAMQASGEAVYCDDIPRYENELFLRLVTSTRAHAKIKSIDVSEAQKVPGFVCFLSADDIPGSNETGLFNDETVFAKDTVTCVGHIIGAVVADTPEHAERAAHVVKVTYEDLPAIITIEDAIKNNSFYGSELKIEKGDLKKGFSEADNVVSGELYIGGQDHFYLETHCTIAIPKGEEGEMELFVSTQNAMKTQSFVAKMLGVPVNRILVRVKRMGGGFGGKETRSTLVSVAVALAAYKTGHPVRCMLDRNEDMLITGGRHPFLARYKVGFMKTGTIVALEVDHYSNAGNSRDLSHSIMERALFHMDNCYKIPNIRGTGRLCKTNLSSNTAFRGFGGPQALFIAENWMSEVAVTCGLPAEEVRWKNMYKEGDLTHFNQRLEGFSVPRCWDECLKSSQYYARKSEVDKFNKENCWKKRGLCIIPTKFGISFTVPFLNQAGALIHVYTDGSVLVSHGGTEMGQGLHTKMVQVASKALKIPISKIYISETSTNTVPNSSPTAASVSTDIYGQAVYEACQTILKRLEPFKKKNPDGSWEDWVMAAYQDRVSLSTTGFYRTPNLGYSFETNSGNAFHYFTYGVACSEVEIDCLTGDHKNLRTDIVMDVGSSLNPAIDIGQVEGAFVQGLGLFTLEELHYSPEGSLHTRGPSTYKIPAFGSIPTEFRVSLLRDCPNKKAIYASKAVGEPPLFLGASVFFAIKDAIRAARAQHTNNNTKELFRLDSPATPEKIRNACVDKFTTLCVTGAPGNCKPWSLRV

| SMILES | inhibition at 100 µM [%] |
| --- | --- |
| COc1ccc(Nc2ncnc3c2C(c2ccc([N+](=O)[O-])cc2)c2c(n[nH]c2C)O3)cc1 (stereo unspecified) | 25.7 |
| COc1ccc(Nc2ncnc3c2C(c2ccc(O)cc2)c2c(n[nH]c2C)O3)cc1 (stereo unspecified) | 52.1 |
| COc1ccc(Nc2ncnc3c2C(c2ccncc2)c2c(c(=O)oc4ccccc24)O3)cc1 (stereo unspecified) | 45.1 |
| COc1ccc(Nc2ncnc3c2C(c2ccc(F)cc2)c2c(ccc4ccccc24)O3)cc1 (stereo unspecified) | 19.6 |
| COc1ccc(Nc2ncnc3c2C(c2ccccc2)c2c(ccc4ccccc24)O3)cc1 (stereo unspecified) | 20.2 |
| COc1ccc(Nc2ncnc3c2C(c2ccc(F)cc2)c2c(n[nH]c2C)O3)cc1 (stereo unspecified) | 35.7 |
| COc1ccc(Nc2ncnc3c2C(c2ccccc2OC)c2ccc4ccccc4c2O3)cc1 (stereo unspecified) | 30 |
| COc1ccc(Nc2ncnc3c2C(c2cccc(C)c2)c2c(ccc4ccccc24)O3)cc1 (stereo unspecified) | 22.6 |
| COc1ccc(Nc2ncnc3c2C(c2cccc(C)c2)c2ccc4ccccc4c2O3)cc1 (stereo unspecified) | 21.8 |
| COc1ccc(Nc2ncnc3c2C(c2cccs2)c2c(n[nH]c2C)O3)cc1 (stereo unspecified) | 19.8 |
| COc1ccc(Nc2ncnc3c2C(c2ccc(Cl)cc2)c2c(n[nH]c2C)O3)cc1 (stereo unspecified) | 32.2 |
| COc1ccc(Nc2ncnc3c2C(c2ccccc2)c2c(n[nH]c2C)O3)cc1 (stereo unspecified) | 38.1 |
| COc1ccc(Nc2ncnc3c2C(c2cc(OC)c(OC)c(OC)c2)c2ccc4ccccc4c2O3)cc1 (stereo unspecified) | 25.2 |
| COc1ccc(Nc2ncnc3c2C(c2ccncc2)C2=C(CCCC2=O)O3)cc1 (stereo unspecified) | 46 |
| COc1ccc(Nc2ncnc3c2C(c2ccc(OC)cc2)c2c(ccc4ccccc24)O3)cc1 (stereo unspecified) | 32.6 |
| COc1ccc(Nc2ncnc3c2C(c2cccs2)c2c(c(=O)oc4ccccc24)O3)cc1 (stereo unspecified) | 58.8 |
| COc1ccc(Nc2ncnc3c2C(c2ccc(Br)cc2)c2ccc4ccccc4c2O3)cc1 (stereo unspecified) | 15.5 |
| COc1ccc(Nc2ncnc3c2C(c2ccc(O)c(O)c2)c2c(ccc4ccccc24)O3)cc1 (stereo unspecified) | 37.2 |

| SMILES | inhibition at 100 µM [%] |
| --- | --- |
| COc1ccc(Nc2ncnc3c2C(c2cccs2)C2=C(CCCC2=O)O3)cc1 (stereo unspecified) | 59.1 |
| COc1ccc(Nc2ncnc3c2C(c2cccc(Cl)c2)c2c(ccc4ccccc24)O3)cc1 (stereo unspecified) | 17.6 |
| COc1ccc(Nc2ncnc3c2C(c2ccc(O)cc2)c2c(ccc4ccccc24)O3)cc1 (stereo unspecified) | 29.1 |
| COc1ccc(Nc2ncnc3c2C(c2ccc(OC)c(OC)c2)c2c(ccc4ccccc24)O3)cc1 (stereo unspecified) | 39.4 |
| COc1ccc(Nc2ncnc3c2C(c2ccccc2OC)c2c(n[nH]c2C)O3)cc1 (stereo unspecified) | 55.2 |
| COc1ccc(Nc2ncnc3c2C(c2cccc(C)c2)c2c(n[nH]c2C)O3)cc1 (stereo unspecified) | 43.6 |
| COc1ccc(Nc2ncnc3c2C(c2ccc(Br)cc2)c2c(ccc4ccccc24)O3)cc1 (stereo unspecified) | 16.5 |
| COc1ccc(Nc2ncnc3c2C(c2ccc(OC)c(OC)c2)c2ccc4ccccc4c2O3)cc1 (stereo unspecified) | 39.7 |
| COc1ccc(Nc2ncnc3c2C(c2ccc([N+](=O)[O-])cc2)c2ccc4ccccc4c2O3)cc1 (stereo unspecified) | 10.5 |
| COc1ccc(Nc2ncnc3c2C(c2cccc(O)c2)c2c(ccc4ccccc24)O3)cc1 (stereo unspecified) | 28.1 |
| COc1ccc(Nc2ncnc3c2C(c2cccc4ccccc24)C2=C(CCCC2=O)O3)cc1 (stereo unspecified) | 12.1 |
| COc1ccc(Nc2ncnc3c2C(c2ccncc2)c2c(n[nH]c2C)O3)cc1 (stereo unspecified) | 15.1 |
| COc1ccc(Nc2ncnc3c2C(c2cccc(Cl)c2)c2c(n[nH]c2C)O3)cc1 (stereo unspecified) | 33.1 |
| COc1ccc(Nc2ncnc3c2C(c2ccc(O)cc2)c2ccc4ccccc4c2O3)cc1 (stereo unspecified) | 28.6 |
| COc1ccc(Nc2ncnc3c2C(c2ccccc2OC)c2c(ccc4ccccc24)O3)cc1 (stereo unspecified) | 30.1 |
| COc1ccc(Nc2ncnc3c2C(c2cccc4ccccc24)c2c(n[nH]c2C)O3)cc1 (stereo unspecified) | 10.1 |
| COc1ccc(Nc2ncnc3c2C(c2ccc(OC)cc2)c2ccc4ccccc4c2O3)cc1 (stereo unspecified) | 31.1 |
| COc1ccc(Nc2ncnc3c2C(c2cccc([N+](=O)[O-])c2)c2c(ccc4ccccc24)O3)cc1 (stereo unspecified) | 13.3 |
